Test results taken from US20260226071A1, “2, 4-DIANILINOPYRIMIDINE-BASED AURORA-A KINASE SELECTIVE DEGRADATION INDUCING COMPOUNDS” (UPPTHERA, INC., priority 2023, published 2026).

Target: T1, Aurora kinase A (AURKA) (Homo sapiens, UniProt O14965)
T1 construct: endogenous in cells; host or cells: HeLa LgBit (AURKA-HiBit KI), CRISPR/Cas9 knock-in at the endogenous AURKA locus
T1 sequence (O14965 1-403): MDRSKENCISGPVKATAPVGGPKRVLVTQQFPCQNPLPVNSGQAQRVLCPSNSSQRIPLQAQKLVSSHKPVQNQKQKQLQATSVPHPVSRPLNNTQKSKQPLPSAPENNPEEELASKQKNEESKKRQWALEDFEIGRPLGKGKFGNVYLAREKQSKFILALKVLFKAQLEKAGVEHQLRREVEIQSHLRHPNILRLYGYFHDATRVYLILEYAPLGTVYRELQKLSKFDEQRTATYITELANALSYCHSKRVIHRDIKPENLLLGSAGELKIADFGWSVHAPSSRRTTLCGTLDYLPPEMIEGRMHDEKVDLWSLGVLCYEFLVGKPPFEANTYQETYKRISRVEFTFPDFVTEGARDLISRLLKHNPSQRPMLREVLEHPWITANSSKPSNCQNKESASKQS
Test: Luciferase assay for AURKA in HeLa LgBit (AURKA-HiBit KI) cell line
Format: cell-based
Conditions: HeLa LgBit (AURKA-HiBit KI) cells, measured after 12 hours
From the text: HeLa cell lines that stably express LgBit were constructed via LgBit vector transfection. Then, donor DNA and guide RNA for insertion of HiBit amino acid sequence at C-terminus of inherent Aurora kinase A (AURKA) genes were designed and constructed. Thereafter, they were transfected into the cell lines with CRISPR/Cas9 expression vector system. HiBit gene knock-in single cells were selected, passaged and used for the experiments.
For cell culture, DMEM (Gibco, Cat. No. 11995-065; Lot. No. 2562497), FBS (Gibco, Cat. No. 16000-044; Lot. No. 2511328P), Penicillin/Streptomycin (PS) (Gibco, Cat. No. 15140-122; Lot. No. 2585636), 90 mm^2 cell culture dish (SPL, Cat. No. 20100), 96-well white plate, PBS pH 7.4 (Gibco, […]), TrypLE™ Express (Gibco, Cat. No. 12605-010; Lot. No. 2522525), counting chamber (hematocytometer) (Hirschmann, Cat. No. 8100204; Lot. No. 8021087) and 0.4% Trypan Blue solution (DYNEBIO, Cat. No. CBT3710; Lot. No. 20231017) were used. Cells were cultured in DMEM supplemented with 10% FBS and 1% PS and incubated in CO2 incubator (Thermo, Cat. No. 4111) at 37° C., 5% CO2 condition.
HeLa LgBit (AURKA-HiBit KI) cell lines were cultured in 90 mm^2 cell culture dish, and 3×10^4 cells in […] of total medium volume were seeded and incubated for 18 hours in CO2 incubator. Then, Eudurazine (Promega, Cat. No. N247B; Lot. No. 495218) was added to each well to make up 1% of the total volume, followed by further incubation for 2 hours in CO2 incubator.
The present compounds were fully dissolved in DMSO (Sigma-Aldrich Cat. No. D2438, Lot. No. RNBL7287) and 10 nM or 100 nM of total concentration were used in the experiment. After adding the compounds in each well of 96-well white plate, the plate was placed in the plate reader (BMG Labtech, CLARIOstar Plus) for real-time analysis. The wavelength for analysis was set to […], and the luminescence value was measured after 12 hours. The luminescence value was analyzed through an Excel program.

luminescence value (Level) (10 nM compound)	luminescence value (Level) (100 nM compound)	Compound
C (C is 0.5 to 0.7)	B (B is 0.2 to 0.4)	O=C1CCC(Nc2ccc(N3CC4CC(C3)N(CC3CCN(C(=O)c5ccc(Nc6ncc(F)c(Nc7ccc(C(=O)Nc8ccccc8Cl)cc7)n6)cc5)CC3)C4)cc2)C(=O)N1 (centres unmarked) [Compound 29, N-(2-chlorophenyl)-4-((2-((4-(4-((3-(4-((2,6-dioxopiperidin-3-yl)amino)phenyl)-3,6-diazabicyclo[3.2.1]octan-6-yl)methyl)piperidine-1-carbonyl)phenyl)amino)-5-fluoropyrimidin-4-yl)amino)benzamide]
D (D is 0.7 to 0.8)	B (B is 0.2 to 0.4)	O=C1CCC(c2ccc(C#CC3CCN(C4CCN(C(=O)Cc5ccc(Nc6ncc(F)c(Nc7ccc(C(=O)Nc8ccccc8Cl)cc7)n6)cc5)CC4)CC3)cc2)C(=O)N1 (centres unmarked) [Compound 15, N-(2-chlorophenyl)-4-((2-((4-(2-(4-((4-(2,6-dioxopiperidin-3-yl)phenyl)ethynyl)-[1,4′-bipiperidin]-1′-yl)-2-oxoethyl)phenyl)amino)-5-fluoropyrimidin-4-yl)amino)benzamide]
B (B is 0.3 to 0.5)	A (A is <0.2)	O=C1CCC(c2ccc(N3CCN(CCN4CC[C@H](NC(=O)c5ccc(Nc6ncc(F)c(Nc7ccc(C(=O)Nc8ccccc8Cl)cc7)n6)cc5)C4)CC3)cc2)C(=O)N1 (stereo partly drawn) [Compound 68, N-(2-chlorophenyl)-4-((2-((4-(((3S)-1-(2-(4-(4-(2,6-dioxopiperidin-3-yl)phenyl)piperazin-1-yl)ethyl)pyrrolidin-3-yl)carbamoyl)phenyl)amino)-5-fluoropyrimidin-4-yl)amino)benzamide]
B (B is 0.3 to 0.5)	B (B is 0.2 to 0.4)	O=C1CC[C@H](NC(=O)c2ccc(N3CCN(CCC4CCN(NC(=O)c5ccc(Nc6ncc(F)c(Nc7ccc(C(=O)Nc8ccccc8Cl)cc7)n6)cc5)CC4)CC3)cn2)C(=O)N1 [Compound 87, (S)-5-(4-(2-(1-(4-((4-((4-((2-chlorophenyl)carbamoyl)phenyl)amino)-5-fluoropyrimidin-2-yl)amino)benzamido)piperidin-4-yl)ethyl)piperazin-1-yl)-N-(2,6-dioxopiperidin-3-yl)picolinamide]
B (B is 0.3 to 0.5)	B (B is 0.2 to 0.4)	O=C1CCN(c2ccc(N3CCN(CCC4CCN(NC(=O)c5ccc(Nc6ncc(F)c(Nc7ccc(C(=O)Nc8ccccc8Cl)cc7)n6)cc5)CC4)CC3)cc2)C(=O)N1 [Compound 54, N-(2-chlorophenyl)-4-[[2-[4-[[4-[2-[4-[4-(2,4-dioxohexahydropyrimidin-1-yl)phenyl]piperazin-1-yl]ethyl]-1-piperidyl]carbamoyl]anilino]-5-fluoro-pyrimidin-4-yl]amino]benzamide]
C (C is 0.5 to 0.7)	A (A is <0.2)	O=C1CCC(c2ccc(N3CCN(CCC4CCN(NC(=O)c5ccc(Nc6ncc(F)c(Nc7cc(C8CC8)[nH]n7)n6)cc5)CC4)CC3)cc2)C(=O)N1 (centres unmarked) [Compound 61, 4-((4-((5-cyclopropyl-1H-pyrazol-3-yl)amino)-5-fluoropyrimidin-2-yl)amino)-N-(4-(2-(4-(4-(2,6-dioxopiperidin-3-yl)phenyl)piperazin-1-yl)ethyl)piperidin-1-yl)benzamide]
B (B is 0.3 to 0.5)	B (B is 0.2 to 0.4)	O=C1CCC(Nc2ccc(N3CCC(CN4C[C@H]5C[C@H](NC(=O)c6ccc(Nc7ncc(F)c(Nc8ccc(C(=O)Nc9ccccc9Cl)cc8)n7)cc6)C[C@H]5C4)CC3)cc2)C(=O)N1 (stereo partly drawn) [Compound 41, N-(2-chlorophenyl)-4-((2-((4-(((3aR,5s,6aS)-2-((1-(4-((2,6-dioxopiperidin-3-yl)amino)phenyl)piperidin-4-yl)methyl)octahydrocyclopenta[c]pyrrol-5-yl)carbamoyl)phenyl)amino)-5-fluoropyrimidin-4-yl)amino)benzamide]
C (C is 0.5 to 0.7)	B (B is 0.2 to 0.4)	COc1cc(N2CCN(CCC3CCN(NC(=O)c4ccc(Nc5ncc(F)c(Nc6ccc(C(=O)Nc7ccccc7Cl)cc6)n5)cc4F)CC3)CC2)c(F)cc1C1CCC(=O)NC1=O (centres unmarked) [Compound 119, 4-((4-((4-((2-chlorophenyl)carbamoyl)phenyl)amino)-5-fluoropyrimidin-2-yl)amino)-N-(4-(2-(4-(4-(2,6-dioxopiperidin-3-yl)-2-fluoro-5-methoxyphenyl)piperazin-1-yl)ethyl)piperidin-1-yl)-2-fluorobenzamide]
B (B is 0.3 to 0.5)	A (A is <0.2)	O=C1CCC(Nc2ccc(N3CCC(CN4C[C@@H]5[C@H](C4)[C@H]5NC(=O)c4ccc(Nc5ncc(F)c(Nc6ccc(C(=O)Nc7ccccc7Cl)cc6)n5)cc4)CC3)cc2)C(=O)N1 (stereo partly drawn) [Compound 40, N-(2-chlorophenyl)-4-((2-((4-(((1R,5S,6s)-3-((1-(4-((2,6-dioxopiperidin-3-yl)amino)phenyl)piperidin-4-yl)methyl)-3-azabicyclo[3.1.0]hexan-6-yl)carbamoyl)phenyl)amino)-5-fluoropyrimidin-4-yl)amino)benzamide]
A (A is <0.3)	A (A is <0.2)	Cn1nc(C2CCC(=O)NC2=O)c2cc(F)c(N3CCN(CCC4CCN(NC(=O)c5ccc(Nc6ncc(F)c(Nc7ccc(C(=O)Nc8ccccc8Cl)cc7)n6)cc5)CC4)CC3)cc21 (centres unmarked) [Compound 107, N-(2-chlorophenyl)-4-((2-((4-((4-(2-(4-(3-(2,6-dioxopiperidin-3-yl)-5-fluoro-1-methyl-1H-indazol-6-yl)piperazin-1-yl)ethyl)piperidin-1-yl)carbamoyl)phenyl)amino)-5-fluoropyrimidin-4-yl)amino)benzamide]
C (C is 0.5 to 0.7)	B (B is 0.2 to 0.4)	O=C1CCC(Nc2ccc(N3CC4CC(C3)N(C3CCN(C(=O)c5ccc(Nc6ncc(F)c(Nc7ccc(C(=O)Nc8ccccc8Cl)cc7)n6)cc5)CC3)C4)cc2)C(=O)N1 (centres unmarked) [Compound 28, N-(2-chlorophenyl)-4-((2-((4-(4-(3-(4-((2,6-dioxopiperidin-3-yl)amino)phenyl)-3,6-diazabicyclo[3.2.1]octan-6-yl)piperidine-1-carbonyl)phenyl)amino)-5-fluoropyrimidin-4-yl)amino)benzamide]
B (B is 0.3 to 0.5)	A (A is <0.2)	O=C1CCC(Nc2ccc(N3CCCN(C[C@H]4CC[C@H](NC(=O)c5ccc(Nc6ncc(F)c(Nc7ccc(C(=O)Nc8ccccc8Cl)cc7)n6)cc5)CC4)CC3)cc2)C(=O)N1 (some centres unmarked) [Compound 39, N-(2-chlorophenyl)-4-((2-((4-(((1r,4r)-4-((4-(4-((2,6-dioxopiperidin-3-yl)amino)phenyl)-1,4-diazepan-1-yl)methyl)cyclohexyl)carbamoyl)phenyl)amino)-5-fluoropyrimidin-4-yl)amino)benzamide]
B (B is 0.3 to 0.5)	A (A is <0.2)	O=C1CCC(c2ccc(N3CCN(CCN4CC[C@@H](NC(=O)c5ccc(Nc6ncc(F)c(Nc7ccc(C(=O)Nc8ccccc8Cl)cc7)n6)cc5)C4)CC3)cc2)C(=O)N1 (stereo partly drawn) [Compound 64, N-(2-chlorophenyl)-4-((2-((4-(((3R)-1-(2-(4-(4-(2,6-dioxopiperidin-3-yl)phenyl)piperazin-1-yl)ethyl)pyrrolidin-3-yl)carbamoyl)phenyl)amino)-5-fluoropyrimidin-4-yl)amino)benzamide]
